Data on six molecules can be found in publication PMC12525602, “Identification of Selective α-Glucosidase Inhibitors via Virtual Screening with Machine Learning” (Molecules, 2025).

Experiment [1] addresses α-amylase. The arrangement: method as in ref 14 (Lim et al. 2022). The conditions noted are these: ref 14 (Lim et al. 2022); cited from earlier work.
The target in experiment [2] is α-glucosidase. The arrangement: method as in ref 14 (Lim et al. 2022). Conditions: ref 14 (Lim et al. 2022); cited from earlier work.
Experiment [3] addresses T1, α-glucosidase (Saccharomyces cerevisiae, UniProt P53341).
T1 construct: purchased Sigma-Aldrich Co. (St. Louis, MI, USA)
Put plainly: biochemical. The experiment is classed as biochemical. As for the experimental part:
To further investigate the inhibition kinetics of the candidate compounds, α-glucosidase activity was determined at different substrate concentrations. The Lineweaver-Burk expression method in Equation (1) was used to test the reaction of a series of compounds with the substrate pNαGP, and the values of maximum velocity (Vmax) and Michaelis-Menten constant (Km) were calculated.(1) 1/v=Km/Vmax1/[S]+1/Vmax where Vmax and Km are the maximum velocity of the enzyme and the Michaelis-Menten constant in the absence of inhibitor, respectively. [S] is the concentration of substrate and inhibitor.(2) Slope=Km/Vmax+Km/Vmax·KiI where v is the initial reaction rate, Vmax is the maximum initial reaction rate, [I] is the concentration of […], and Km is the Michaelis-Menten constant.

Experiment [4] deals with T1, α-glucosidase. Put plainly: Fluorescence quenching experiment (Stern-Volmer). The class given is binding. The conditions noted are these: for Kd: Ka (binding constant); for Kq (bimolecular quenching constant): given as number×10 with exponent 12. As for the experimental part: The fluorescence quenching experiment was modified somewhat based on previous studies. Fluorescence was determined by titrating α-glucosidase (1.0 mL, 2 U/mL) with different concentrations of inhibited solutions (1.0 mL, 0–200 mM) and left to equilibrate for 5 min. […] Fluorescence burst analysis was performed based on the Stern-Volmer (3) equation.(3) F0/F=1+Kqτ0Q=1+KsvQ
F and F0 are the fluorescence intensities with and without inhibitor, respectively, Ksv is the Stern-Volmer bursting constant, Kq is the bimolecular bursting constant, and [Q] is the concentration of inhibitor.
When the bursting mode conforms to static bursting, the binding constant Ka and the number of binding sites for each enzyme can be calculated from Equation (4).(4) logF0−F/F=logKa+nlogQ
Ka is the binding constant and n is the number of binding sites.
The thermodynamic parameters ∆H, ∆S, and ∆G denote the change in heat, entropy, and free energy, respectively.

Experiment [5] addresses T1, α-glucosidase. Put plainly: Synchronous fluorescence spectroscopy (RSQF). The class given is binding. As for the experimental part: Changes in the microenvironment of tyrosine (Tyr) and tryptophan (Trp) residue fluorophores were detected simultaneously. The excitation and emission wavelength intervals were set to 15 nm and 60 nm, respectively, and the synchronized fluorescence spectra from 260 to 320 nm were determined. The synchronized fluorescence burst ratio (RSFQ) was calculated as follows:(7) RSQF=1−F/F0

Experiment [6] concerns the target T2, α-amylase (Sus scrofa, UniProt P00690).
T2 construct: α-amylase isolated from porcine pancreas; purchased Sigma-Aldrich Co. (St. Louis, MI, USA); host or cells: porcine pancreas
T2 sequence (P00690 16-511): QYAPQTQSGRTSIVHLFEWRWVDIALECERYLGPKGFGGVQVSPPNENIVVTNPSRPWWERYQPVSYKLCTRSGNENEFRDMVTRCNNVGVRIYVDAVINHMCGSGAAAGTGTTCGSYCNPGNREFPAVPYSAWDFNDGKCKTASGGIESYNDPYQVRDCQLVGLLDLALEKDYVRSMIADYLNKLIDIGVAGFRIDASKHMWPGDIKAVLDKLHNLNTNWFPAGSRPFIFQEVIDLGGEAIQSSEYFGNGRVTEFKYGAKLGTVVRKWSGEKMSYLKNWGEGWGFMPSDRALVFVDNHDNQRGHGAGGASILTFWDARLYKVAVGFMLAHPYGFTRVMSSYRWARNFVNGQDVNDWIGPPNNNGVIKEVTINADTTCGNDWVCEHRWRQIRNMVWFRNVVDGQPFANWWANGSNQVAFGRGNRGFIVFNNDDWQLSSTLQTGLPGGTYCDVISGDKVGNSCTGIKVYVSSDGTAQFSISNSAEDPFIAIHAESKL
Put plainly: In vitro α-amylase activity assay (G3-CNP, absorbance 405 nm). Set-up: inhibition of α-amylase: dose or concentration left out as unconfirmed. The conditions noted are these: for inhibition of α-amylase: […] µM. The experiment is classed as biochemical, porcine. On the procedure: (§1) The inhibitors used in this study were purchased from the ChemDiv website. Unless otherwise stated, all other reagents used in this experiment were analytically pure reagents purchased from Sigma-Aldrich Co. (St. Louis, MI, USA).
The in vitro α-amylase activity assay was determined spectrophotometrically as previously described with only minor modifications. A phosphate-buffer solution at pH 6.8 was configured to obtain α-amylase 5 U/mL and 2-chloro-4-nitrophenyl α-D-maltotrioside (G3-CNP) 0.6 mM. […] Gradient dilution with phosphate-buffer solution was performed to obtain sample solutions of different concentrations.
(§2) The IC50 values of the tested compounds were calculated using nonlinear fitting (logit method).

The target of experiment [7] is T1, α-glucosidase. Put plainly: In vitro α-glucosidase activity assay (pNαGP, absorbance 405 nm). The experiment is classed as biochemical. The conditions noted are these: for inhibition at 250 µM: read-out: inhibition of α-glucosidase. On the procedure: as §1
The in vitro α-glucosidase activity assay was determined spectrophotometrically as previously described with only minor modifications. A phosphate-buffer solution at pH 6.8 was configured to obtain 0.5 U/mL of α-glucosidase and 0.6 mM of […] (pNαGP). […] Gradient dilution with phosphate-buffer solution was performed to obtain sample solutions of different concentrations. First, different concentrations of compounds (10 µL), enzyme solution (40 µL) and potassium phosphate buffer (100 µL) were pre-incubated in a 96-well plate for 10 min at 37 °C. Then, 50 µL of substrate (pNαGP, 0.6 mM) was added to each microtiter well and incubated for 20 min at 37 °C, and the absorbance at 405 nm was measured to detect the change in enzyme activity.
The enzyme inhibitory activity of the tested compounds was calculated as follows: α−glucosidase inhibition rate%=Abs control−Abs sample/Abs control×100
as §2

Experiment [8] concerns the target α-glucosidase. The arrangement: method as in ref 15 (Sun et al. 2017). The conditions noted are these: ref 15 (Sun et al. 2017); cited from earlier work.
The target in experiment [9] is α-amylase. The arrangement: method as in ref 15 (Sun et al. 2017). Conditions: ref 15 (Sun et al. 2017); cited from earlier work.
In experiment [10] the test system is α-glucosidase. Conditions: activity label of the modeling dataset (Table S5), α-glucosidase; 1 = active, 0 = inactive; cited from earlier work.

A word on the IC50: it is the concentration needed to halve the response being measured. One may read the Ki as the equilibrium dissociation constant of an inhibitor or competing ligand from its target. In general, Kd refers to the constant that tells how readily two partners part at equilibrium. A word on the inhibition: it is the change of the read-out against control, counted positive when it falls.

Read-outs that look alike come from different tables or passages of the source.

T1 sequence (P53341 whole entry): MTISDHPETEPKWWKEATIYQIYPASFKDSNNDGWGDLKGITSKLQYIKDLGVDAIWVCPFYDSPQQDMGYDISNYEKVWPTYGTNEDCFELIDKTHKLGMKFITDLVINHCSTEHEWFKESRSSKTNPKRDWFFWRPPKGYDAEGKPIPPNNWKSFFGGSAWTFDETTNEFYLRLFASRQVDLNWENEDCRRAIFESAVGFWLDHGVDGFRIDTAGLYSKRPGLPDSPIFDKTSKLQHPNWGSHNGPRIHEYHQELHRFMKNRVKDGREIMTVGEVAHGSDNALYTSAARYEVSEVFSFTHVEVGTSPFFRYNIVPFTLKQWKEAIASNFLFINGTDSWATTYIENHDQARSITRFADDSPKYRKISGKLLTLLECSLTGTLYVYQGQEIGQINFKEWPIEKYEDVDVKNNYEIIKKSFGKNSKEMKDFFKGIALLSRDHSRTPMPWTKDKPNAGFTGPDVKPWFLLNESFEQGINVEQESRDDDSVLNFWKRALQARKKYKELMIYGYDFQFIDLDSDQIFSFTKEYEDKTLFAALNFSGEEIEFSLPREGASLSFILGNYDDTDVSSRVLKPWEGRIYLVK

Regarding `O=c1c(O)c(-c2ccc(O)c(O)c2)oc2ccccc12` [3′,4′-dihydroxyflavonol], the IC50 on α-amylase [1] is 119 µM; on α-glucosidase [2], 34.3 µM.

As for `O=[N+]([O-])c1ccccc1C1Oc2ccccc2C2CC(c3ccccc3)=NN21` (stereo not shown) [K411], the Ki on α-glucosidase [3] worked out at 61.3 ± 14.4 µM. In addition, the Type of inhibition result at α-glucosidase [3] is reported as “Competitive”. Besides, the Vmax on α-glucosidase [3] ([I] 7.5 μM) is 8.94±0.06 ×10-1µM/min; on α-glucosidase [3] ([I] 15 μM), 8.85±0.02 ×10-1µM/min; at α-glucosidase [3] ([I] 30 μM) it was 8.62±0.04 ×10-1µM/min; at α-glucosidase [3] ([I] 50 μM), 8.81±0.03 ×10-1µM/min; at α-glucosidase [3] ([I] 70 μM), 8.43±0.04 ×10-1µM/min. Also, the Kd was 1.98 µM at α-glucosidase [4] (T 300.15 K), 2.07 µM on α-glucosidase [4] (T 305.15 K) and 3.91 µM at α-glucosidase [4] (T 310.15 K). The “Ksv (quenching constant)” value at α-glucosidase [4] (T 300.15 K) is 10.50 ±0.01 104 /M; on α-glucosidase [4] (T 305.15 K) it was 7.67 ±0.01 104 /M; at α-glucosidase [4] (T 310.15 K), 5.51 ±0.01 104 /M. Also, the “n (number of binding sites)” value on α-glucosidase [4] (T 300.15 K) came out at 1.15; on α-glucosidase [4] (T 305.15 K), 1.17; on α-glucosidase [4] (T 310.15 K), 1.15. The “Kq (bimolecular quenching constant)” value on α-glucosidase [4] (T 305.15 K) is listed as 7.67 ×10^12 (M·S)-1; on α-glucosidase [4] (T 310.15 K), 5.51 ×10^12 (M·S)-1. Also, the “RSQF values, Trp (Δλ = 60 nm) versus Tyr (Δλ = 15 nm)” value at α-glucosidase [5] is “significantly higher”. In addition, the IC50 against α-amylase [6] is above 500 µM; against α-glucosidase [7], 67.8 ± 2.18 µM. Further, the “inhibition of α-amylase” value against α-amylase [6] is “minimal inhibition”. Also, the inhibition at 250 µM on α-glucosidase [7] was around 100%.

For the molecule `COc1ccc(-c2nn(-c3ccccc3)c(C)c2-c2cc(C#N)c(C#N)cc2O)cc1` [K802], the Type of inhibition result on α-glucosidase [3] is “Competitive”. Besides, the Vmax on α-glucosidase [3] ([I] 7.5 μM) is listed as 9.17±0.04 ×10-1µM/min; at α-glucosidase [3] ([I] 15 μM), 9.83±0.06 ×10-1µM/min; at α-glucosidase [3] ([I] 30 μM), 9.35±0.03 ×10-1µM/min; at α-glucosidase [3] ([I] 50 μM), 9.62±0.05 ×10-1µM/min; at α-glucosidase [3] ([I] 70 μM), 9.48±0.02 ×10-1µM/min. Further, the dissociation constant Kd at α-glucosidase [4] (T 300.15 K) is 2.51 µM; at α-glucosidase [4] (T 305.15 K), 19.6 µM; at α-glucosidase [4] (T 310.15 K), 23.8 µM. Besides, the “Ksv (quenching constant)” value at α-glucosidase [4] (T 300.15 K) was 0.59 ±0.02 104 /M; on α-glucosidase [4] (T 305.15 K), 0.42 ±0.04 104 /M; on α-glucosidase [4] (T 310.15 K) it was 0.39 ±0.02 104 /M. The “n (number of binding sites)” value is recorded as 1.16 on α-glucosidase [4] (T 300.15 K), 0.99 on α-glucosidase [4] (T 305.15 K) and 0.79 at α-glucosidase [4] (T 310.15 K). Further, the entries for the “Kq (bimolecular quenching constant)” value at α-glucosidase [4] (T 300.15 K), at α-glucosidase [4] (T 305.15 K) and on α-glucosidase [4] (T 310.15 K) were 0.59 ×10^12 (M·S)-1, 0.42 ×10^12 (M·S)-1 and 0.39 ×10^12 (M·S)-1, respectively. For the same molecule, the “RSQF values, Trp (Δλ = 60 nm) versus Tyr (Δλ = 15 nm)” value on α-glucosidase [5] is “significantly higher”. In addition, the IC50 against α-amylase [6] is above 500 µM; against α-glucosidase [7], 74.7 ± 4.1 µM. For the same molecule, the “inhibition of α-amylase” value against α-amylase [6] is reported as “minimal inhibition”. On α-glucosidase [7], the inhibition at 250 µM was around 100%.

As to `O=C(/C=C/c1ccc(O)cc1)c1c(O)cc(O)cc1O` [chalconaringenin], the values for the IC50 on α-glucosidase [8] and on α-amylase [9] were 20 µM and above 100 µM, respectively.

Turning to `O=C1Nc2ccc(Br)cc2/C1=C\c1nc2ccccc2c(=O)n1-c1ccc(C(=O)O)cc1` [K413], on α-glucosidase [3], the Ki worked out at 59.7 ± 10.6 µM and the Type of inhibition entry was “Competitive”. Further, the Vmax at α-glucosidase [3] ([I] 7.5 μM) is on record as 11.41±0.04 ×10-1µM/min. Besides, the Vmax on α-glucosidase [3] ([I] 15 μM) is recorded as 11.35±0.08 ×10-1µM/min. On α-glucosidase [3] ([I] 30 μM), the Vmax was 10.92±0.06 ×10-1µM/min. At α-glucosidase [3] ([I] 50 μM), the Vmax is 10.84±0.07 ×10-1µM/min. Further, at α-glucosidase [4] (T 300.15 K), the dissociation constant (Kd) is 1.59 µM, the “Ksv (quenching constant)” value is 11.46 ±0.01 104 /M and the “n (number of binding sites)” value was found to be 1.17. Further, at α-glucosidase [4] (T 305.15 K), the dissociation constant Kd is 1.62 µM, the “Ksv (quenching constant)” value is on record as 7.99 ±0.01 104 /M, the “n (number of binding sites)” value is given as 1.20 and the “Kq (bimolecular quenching constant)” value is 7.99 ×10^12 (M·S)-1. At α-glucosidase [4] (T 310.15 K), the equilibrium dissociation constant (Kd) was 3.94 µM, the “Ksv (quenching constant)” value is 6.87 ±0.01 104 /M, the “n (number of binding sites)” value was 1.14 and the “Kq (bimolecular quenching constant)” value is recorded as 6.87 ×10^12 (M·S)-1. Also, the “RSQF values, Trp (Δλ = 60 nm) versus Tyr (Δλ = 15 nm)” value on α-glucosidase [5] is “significantly higher”. On α-amylase [6], the IC50 was above 500 µM and the “inhibition of α-amylase” value was “minimal inhibition”. Besides, at α-glucosidase [7], the IC50 is 66.3 ± 7.17 µM and the inhibition at 250 µM was around 100%.

For `COc1cccc(Nc2nnc(-c3cc4cc(C#N)ccc4[nH]3)s2)c1` [compound 43], the activity in the experiment with α-glucosidase [10] is reported as 0.
